Results as given in patent publication US20220257541A1, “Lacosamide for the Treatment of ADD/ADHD” (priority 2019, published 2022).

Experiments:
[1] = system: patient suffering from ADHD; test: Case Study 2: lacosamide mono-therapy in a person with ADHD; format: in vivo, human; conditions: mono-therapy for several weeks
Protocol: We conducted a second case study to validate earlier results of Case Study 1. The patient was a person suffering from ADHD (with no comorbidity such as epilepsy or bipolar disorder). The patient was treated with a lacosamide mono-therapy for several weeks based on the conventional treatment regime for lacosamide (for the treatment of epilepsy and/or bipolar disorder) for subjects weighting 50 kg or more.

[2] = system: children and adolescents with ADHD syndrome; test: Case Study 3: STROOP-P test; format: in vivo, human
Protocol: (§1) These tests offered an objective element that contributed to the establishment of the diagnosis.
(§2) Neuropsychological evaluation was repeated after six months on medication, at the end of the study. These evaluations were guided by trained neuropsychologists. Four different evaluations were conducted: Continuous Performance Test (CPT)1, STROOP-P test, Wisconsin Card sorting Test and the Non Verbal Intelligence Test.
The patients were assessed using the STROOP-P test, which is used to assess the ability to inhibit cognitive interference that occurs when the processing of a specific stimulus feature impedes the simultaneous processing of a second stimulus attribute, well-known as the Stroop Effect.

[3] = system: children and adolescents with ADHD syndrome; test: Case Study 3: Wisconsin Card Sorting Test (WCST) Flexibility; format: in vivo, human
Protocol: as §1, §2
(§3) The patients were assessed using the Wisconsin Card Sorting Test (WCST), which is used to measure higher-level cognitive processes, such as attention, perseverance, abstract thinking, and set shifting. It is particularly used in clinical fields to measure perseverative behaviours that refer to an individual's insistence on wrong behaviour.

[4] = system: reuptake of norepinephrine, dopamine, and serotonin; conditions: cited from earlier work
[5] = system: children and adolescents with ADHD syndrome; test: Case Study 3: IQ test prior to and after treatment; format: in vivo, human; conditions: for IQ: Post-treatment, patient
Protocol: IQ was tested prior to and after treatment.

[6] = system: children and adolescents with ADHD syndrome; test: Case Study 3: Wisconsin Card Sorting Test (WCST) Reasoning; format: in vivo, human; conditions: second evaluation
Protocol: as §1, §2, §3

[7] = system: children and adolescents with ADHD syndrome; test: Case Study 3: Test of Nonverbal Intelligence (TONI-2); format: in vivo, human
Protocol: as §1, §2
The patients were assessed using the Test of Nonverbal Intelligence (TONI-2), which is a language-free measure of abstract problem-solving ability.

GABA transaminase = GABA transaminase (Homo sapiens, UniProt P80404); conditions: cited from earlier work
[8] = system: children and adolescents with ADHD syndrome; test: Case Study 3: adverse reactions or side effects; format: in vivo, human; conditions: all 12 patients, 6 months
Source text: To formalise the control of the treatment, a tool was designed, allowing to record all administrated doses to participants on a daily basis, including any occurrence or increase of adverse reactions or side effects.

GABA transaminase, sequence (P80404 29-500, species assumed): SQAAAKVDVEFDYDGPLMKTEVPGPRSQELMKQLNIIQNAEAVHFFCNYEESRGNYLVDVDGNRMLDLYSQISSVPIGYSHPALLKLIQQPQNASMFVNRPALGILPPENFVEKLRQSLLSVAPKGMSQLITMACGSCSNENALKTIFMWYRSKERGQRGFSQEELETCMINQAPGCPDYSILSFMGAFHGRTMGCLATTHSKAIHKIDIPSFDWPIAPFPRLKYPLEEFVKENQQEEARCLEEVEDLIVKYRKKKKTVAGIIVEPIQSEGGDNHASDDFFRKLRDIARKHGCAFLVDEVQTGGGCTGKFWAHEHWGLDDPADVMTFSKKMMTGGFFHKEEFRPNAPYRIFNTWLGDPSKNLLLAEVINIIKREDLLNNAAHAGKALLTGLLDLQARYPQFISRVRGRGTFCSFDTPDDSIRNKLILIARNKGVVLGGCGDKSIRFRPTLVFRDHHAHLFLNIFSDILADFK

## COC[C@@H](NC(C)=O)C(=O)NCc1ccccc1 [lacosamide, (2R)-2-(acetylamino)-N-benzyl-3-methoxypropanamide]
[1]
  ADHD symptomatology: slowly regressed
  cognitive functionality: significant improvement
[2]; measured in both cerebral hemispheres
  ability to inhibit cognitive interference: positive but to a limited extent
[2]; second test, 8.3% in the first evaluation
  patients with Average result, STROOP-P: 25%
[2]; second test, 25% initially
  patients with Severe Deterioration, STROOP-P: 8.3%
[3]; after six months on medication
  cognitive flexibility: improving
[3]; second evaluation, 25% in the first evaluation
  patients with Average and High Average scores, WCST Flexibility: 50%
[3]; second evaluation, 41.7% in the first evaluation
  patients in the lowest two categories (Mild and Severe Deterioration), WCST Flexibility: 16.6%
[4]
  modulation of reuptake of norepinephrine, dopamine, and serotonin: does not modulate
[5]; 12 patients tested
  patients who maintained previous IQ levels: 23%
  patients who raised their IQ values: 77%
  patients with a lowering of the IQ value: In none of the patients
[5]; 2nd High School, Pre-treatment CI-80
  IQ: CI-90
[5]; 2nd High School, Pre-treatment CI-99
  IQ: CI-112
[5]; 2nd Primary, Pre-treatment CI-94
  IQ: CI-106
[5]; 3rd Primary, Pre-treatment CI-82
  IQ: CI-82
[5]; 3rd Primary, Pre-treatment CI-117
  IQ: CI-117
[5]; 5th Primary, Pre-treatment CI-81
  IQ: CI-91
[5]; 5th Primary, Pre-treatment CI-91
  IQ: CI-95
[5]; 5th Primary, Pre-treatment CI-95
  IQ: CI-104
[5]; 5th Primary, Pre-treatment CI-111
  IQ: CI-111
[5]; 6th Primary, Pre-treatment CI-93
  IQ: CI-95
[5]; 7th Primary, Pre-treatment CI-87
  IQ: CI-91
[5]; Bachelor, Pre-treatment CI-108
  IQ: CI-114
[5]; subgroup of 33% of the patients
  IQ progression on average: four
[5]; subgroup of 40% of the patients
  IQ progression average: around 11±2 points
[5]; subgroup that progressed on average by four points
  patients in the subgroup with the smaller IQ progression: 33%
[5]; subgroup with progression average of around 11±2 points
  patients in the subgroup with the larger IQ progression: 40%
[5]; sum for 12 patients tested
  global IQ increase: 60 points
[6]; 50% in the first evaluation
  patients in Severe Deterioration category, WCST Reasoning: 25%
[6]; from 41.7%
  patients in the 3 highest categories, WCST Reasoning: 58.3%
[7]; after six months on medication
  non-verbal reasoning: number of subjects who reached the high average level: doubling
[7]; end of the tested period, from 16.7%
  patients scoring high average in TONI-2: 33.3%
[7]; end of the tested period, from 50%
  patients scoring average in TONI-2: 58.3%
GABA transaminase
  inhibition of GABA transaminase: does not inhibit
[8]
  side effects: without substantial side effects
